The source made the active and inactive calls. No cut-off for these calls is given here.

This is an account of results in ChEMBL document CHEMBL5352414 (Eur J Med Chem, 2022).

For data set [1], the target named is Voltage-dependent T-type calcium channel subunit alpha-1G (Homo sapiens, UniProt O43497). Nature of the data set: Inhibition of human Cav3.1 T-type Ca2+ channel expressed in HEK293 cells assessed as effect on T-currents in response to -20 mV test pulse at -80 mV holding potential by whole cell patch-clamp assay. Type of data set: cell-based. For orientation: The patch-clamp technique gives a direct electrical read-out from membranes.
Chain of Voltage-dependent T-type calcium channel subunit alpha-1G (O43497 whole entry): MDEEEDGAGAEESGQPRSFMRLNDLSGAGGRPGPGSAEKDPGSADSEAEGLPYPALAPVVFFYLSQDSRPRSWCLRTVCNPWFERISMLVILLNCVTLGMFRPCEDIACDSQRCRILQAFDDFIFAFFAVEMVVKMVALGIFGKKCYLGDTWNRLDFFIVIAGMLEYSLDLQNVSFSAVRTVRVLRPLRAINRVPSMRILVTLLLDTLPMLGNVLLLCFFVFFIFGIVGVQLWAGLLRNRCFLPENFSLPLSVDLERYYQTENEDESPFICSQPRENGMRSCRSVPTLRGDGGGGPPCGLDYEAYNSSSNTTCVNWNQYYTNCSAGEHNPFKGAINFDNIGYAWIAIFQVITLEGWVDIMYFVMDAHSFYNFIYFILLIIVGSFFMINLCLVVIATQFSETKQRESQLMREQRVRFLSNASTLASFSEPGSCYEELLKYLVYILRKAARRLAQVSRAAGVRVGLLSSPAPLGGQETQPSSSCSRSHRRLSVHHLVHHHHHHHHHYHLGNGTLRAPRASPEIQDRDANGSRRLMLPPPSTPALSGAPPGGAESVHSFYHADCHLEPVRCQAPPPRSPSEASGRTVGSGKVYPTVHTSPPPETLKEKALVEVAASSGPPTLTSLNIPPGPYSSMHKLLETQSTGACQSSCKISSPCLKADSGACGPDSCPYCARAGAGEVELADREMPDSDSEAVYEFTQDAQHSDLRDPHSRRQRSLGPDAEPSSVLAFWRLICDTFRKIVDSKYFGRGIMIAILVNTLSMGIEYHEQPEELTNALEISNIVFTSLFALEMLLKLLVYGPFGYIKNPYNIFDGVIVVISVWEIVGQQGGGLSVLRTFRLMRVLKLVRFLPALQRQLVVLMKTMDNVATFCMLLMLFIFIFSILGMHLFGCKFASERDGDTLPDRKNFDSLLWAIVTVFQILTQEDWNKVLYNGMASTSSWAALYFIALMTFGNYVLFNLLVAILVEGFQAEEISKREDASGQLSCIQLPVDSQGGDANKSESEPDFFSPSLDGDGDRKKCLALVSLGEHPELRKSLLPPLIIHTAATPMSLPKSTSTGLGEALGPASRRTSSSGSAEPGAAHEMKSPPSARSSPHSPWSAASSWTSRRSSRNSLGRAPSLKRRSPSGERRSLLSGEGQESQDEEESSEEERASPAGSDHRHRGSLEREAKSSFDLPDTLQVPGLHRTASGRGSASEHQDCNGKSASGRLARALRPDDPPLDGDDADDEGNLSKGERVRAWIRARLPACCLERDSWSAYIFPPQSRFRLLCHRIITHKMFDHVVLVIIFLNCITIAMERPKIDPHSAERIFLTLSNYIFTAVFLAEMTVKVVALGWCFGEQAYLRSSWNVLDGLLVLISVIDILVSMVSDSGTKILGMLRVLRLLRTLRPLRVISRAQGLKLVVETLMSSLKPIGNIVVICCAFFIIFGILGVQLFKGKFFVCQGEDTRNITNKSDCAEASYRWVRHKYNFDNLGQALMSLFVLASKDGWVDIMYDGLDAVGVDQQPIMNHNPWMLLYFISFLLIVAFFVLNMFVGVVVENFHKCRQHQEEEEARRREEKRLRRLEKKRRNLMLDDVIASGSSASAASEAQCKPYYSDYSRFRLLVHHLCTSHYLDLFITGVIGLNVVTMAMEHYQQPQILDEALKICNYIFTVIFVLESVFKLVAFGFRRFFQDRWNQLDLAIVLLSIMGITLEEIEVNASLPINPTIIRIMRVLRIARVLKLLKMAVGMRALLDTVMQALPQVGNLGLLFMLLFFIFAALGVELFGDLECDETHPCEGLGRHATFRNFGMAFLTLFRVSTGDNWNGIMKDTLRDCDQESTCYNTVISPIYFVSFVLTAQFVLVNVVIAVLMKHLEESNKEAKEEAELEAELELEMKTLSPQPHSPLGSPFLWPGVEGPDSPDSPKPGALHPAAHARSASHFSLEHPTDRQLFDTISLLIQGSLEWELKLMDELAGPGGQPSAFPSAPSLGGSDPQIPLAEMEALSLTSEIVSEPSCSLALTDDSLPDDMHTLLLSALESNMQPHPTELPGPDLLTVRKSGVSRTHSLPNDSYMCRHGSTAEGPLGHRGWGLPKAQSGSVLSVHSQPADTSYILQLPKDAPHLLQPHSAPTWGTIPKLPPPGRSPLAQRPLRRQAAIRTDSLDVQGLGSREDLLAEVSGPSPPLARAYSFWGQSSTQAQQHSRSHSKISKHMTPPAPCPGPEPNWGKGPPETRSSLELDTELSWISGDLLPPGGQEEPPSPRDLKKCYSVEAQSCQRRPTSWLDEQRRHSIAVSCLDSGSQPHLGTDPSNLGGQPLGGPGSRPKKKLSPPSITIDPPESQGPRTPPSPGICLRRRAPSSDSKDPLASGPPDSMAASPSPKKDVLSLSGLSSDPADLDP

Data set [2] is described as follows: Half life in mouse at 10 mg/kg, ip measured for 24 hrs by LC-MS/MS analysis. As to conditions: in vivo. Type of data set: ADME, organism-based.
A short description of data set [3]: Antagonist activity at 5-HT1 receptor (unknown origin). Also noted: species or system Homo sapiens.
The target of data set [4] is 5-hydroxytryptamine receptor 2A (Rattus norvegicus) (UniProt P14842). Nature of the data set: Antagonist activity at 5-HT2A receptor in Wistar rat jugular vein assessed as vasorelaxation of serotonin-induced contraction at 10 uM preincubated for 10 mins followed by serotonin stimulation. The format is functional, tissue-based.
Chain of 5-hydroxytryptamine receptor 2A (Rattus norvegicus) (P14842 whole entry): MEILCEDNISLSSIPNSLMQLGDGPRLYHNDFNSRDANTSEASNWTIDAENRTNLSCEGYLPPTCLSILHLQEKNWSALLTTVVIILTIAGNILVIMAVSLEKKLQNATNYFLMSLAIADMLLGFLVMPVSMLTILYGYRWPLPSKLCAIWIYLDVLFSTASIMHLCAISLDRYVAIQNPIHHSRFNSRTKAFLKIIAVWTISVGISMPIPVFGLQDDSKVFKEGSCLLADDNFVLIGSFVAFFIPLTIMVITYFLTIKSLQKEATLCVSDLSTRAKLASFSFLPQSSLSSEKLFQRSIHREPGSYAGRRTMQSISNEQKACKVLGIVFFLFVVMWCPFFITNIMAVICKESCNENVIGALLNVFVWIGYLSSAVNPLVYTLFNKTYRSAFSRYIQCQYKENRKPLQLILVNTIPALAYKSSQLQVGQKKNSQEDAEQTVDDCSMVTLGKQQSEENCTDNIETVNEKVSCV
Data set [5] has as its system Mus musculus. Nature of the data set: Antinociceptive activity in Na2S induced colonic pain mouse model at 0.03 to 0.5 mg/kg, ip pretreated for 30 mins followed by intra-colonic administration of Na2S and measured for 30 mins by von frey test. As to conditions: dose 0.03-0.5 mg/kg, time 60.0 min. Type of data set: functional, organism-based.
Data set [6] has as its system Mus musculus. Nature of the data set: Antinociceptive activity in Na2S induced referred hyperalgesia mouse model at 0.03 to 0.5 mg/kg, ip pretreated for 30 mins followed by intracolonic administration of Na2S and measured for 30 mins by von frey test. The format is functional, organism-based. As to conditions: dose 0.03-0.5 mg/kg, time 60.0 min.
A short description of data set [7]: Toxicity in mouse assessed as catelepsy at 8 nmol per mouse, icv measured for 180 mins by bar test. As to conditions: in vivo, icv_or_intrathecal, 3 h.
Data set [8] in a line: Toxicity in mouse assessed as catelepsy at 0.3 to 1 mg/kg, ip measured for 300 mins by bar test. The format is organism-based. The conditions noted are these: in vivo, 5 h, dose 0.3-1 mg/kg.
Data set [9] in a line: Toxicity in mouse assessed as impairment of neuromuscular coordination by measuring shortened latency to fall at 1 mg/kg, ip measured after 60 to 90 mins by rota-rod test. As to conditions: in vivo, time 60-90 min. The format is organism-based. (In general: The rotarod test checks motor coordination on a turning rod.)
Data set [10] has as its target T1, Voltage-dependent T-type calcium channel subunit alpha-1H (Homo sapiens, UniProt O95180). Nature of the data set: Inhibition of human Cav3.2 T-type Ca2+ channel expressed in HEK293 cells assessed as reduction in T-currents at 0.3 uM at -80 mV holding potential by whole cell patch-clamp assay. Type of data set: cell-based.
The target in data set [11] is D(2) dopamine receptor (Rattus norvegicus) (UniProt P61169). Nature of the data set: Displacement of [3H]-spiperone from dopamine D2 receptor in rat brain striatum membrane homogenates at 1 uM incubated for 90 mins. Type of data set: cell membranes. A general note: Displacement assays read how much labelled ligand stays bound in the presence of the test substance.
Chain of D(2) dopamine receptor (Rattus norvegicus) (P61169 whole entry): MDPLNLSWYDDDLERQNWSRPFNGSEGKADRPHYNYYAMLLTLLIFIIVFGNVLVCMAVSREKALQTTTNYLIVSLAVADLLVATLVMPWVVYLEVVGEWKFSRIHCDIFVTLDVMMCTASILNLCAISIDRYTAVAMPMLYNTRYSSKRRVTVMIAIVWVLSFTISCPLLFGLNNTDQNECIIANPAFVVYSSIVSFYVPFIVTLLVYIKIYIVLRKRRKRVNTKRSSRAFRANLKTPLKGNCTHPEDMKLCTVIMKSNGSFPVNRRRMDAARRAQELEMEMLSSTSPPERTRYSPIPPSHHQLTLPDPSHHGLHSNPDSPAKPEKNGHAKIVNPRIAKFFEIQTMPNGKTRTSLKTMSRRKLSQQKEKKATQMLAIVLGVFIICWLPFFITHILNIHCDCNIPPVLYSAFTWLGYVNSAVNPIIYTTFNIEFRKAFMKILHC

Data set [12] has as its target T1, Voltage-dependent T-type calcium channel subunit alpha-1H. Nature of the data set: Inhibition of human Cav3.2 T-type Ca2+ channel expressed in HEK293 cells assessed as effect on T-currents in response to -20 mV test pulse at -80 mV holding potential by whole cell patch-clamp assay. The format is cell-based.
Data set [13] shares this target. Nature of the data set: Inhibition of human Cav3.2 T-type Ca2+ channel expressed in HEK293 cells assessed as effect on T-currents in response to -20 mV test pulse at -110 mV holding potential by whole cell patch-clamp assay. Type of data set: cell-based.
Data set [14] in a line: Toxicity in mouse assessed as catelepsy at 10 mg/kg, ip measured for 300 mins by bar test. The format is organism-based. The conditions noted are these: in vivo, 5 h.
Data set [15] can be described thus: Toxicity in mouse assessed as impairment of neuromuscular coordination by measuring shortened latency to fall at 10 mg/kg, ip measured after 60 to 90 mins by rota-rod test. As to conditions: in vivo, time 60-90 min. Type of data set: organism-based.
Data set [16] deals with D(2) dopamine receptor (Rattus norvegicus) (UniProt P61169). Nature of the data set: Displacement of [3H]-spiperone from dopamine D2 receptor in rat brain striatum membrane homogenates at 10 uM incubated for 90 mins. Type of data set: cell membranes.
The target in data set [17] is 5-hydroxytryptamine receptor 2A (Rattus norvegicus) (UniProt P14842). Nature of the data set: Antagonist activity at 5-HT2A receptor in Wistar rat jugular vein assessed as vasorelaxation of serotonin-induced contraction at 100 uM preincubated for 10 mins followed by serotonin stimulation. Type of data set: functional, tissue-based. As to conditions: filed as antagonist.

For the compound `O=c1[nH]c2ccccc2n1C1CCN(CCCC(c2ccc(F)cc2)c2ccc(F)cc2)CC1` [PIMOZIDE], the IC50 is 307 nM in data set [1] and 2440 nM in data set [3]. The half-life in data set [2] was 2.47 h. Besides, the outcome (in [4] (filed as antagonist); in the data set with Mus musculus [5]; with Mus musculus [6]) was Active. Further, the Activity entry in data set [7], in data set [8] and in [9] was “Toxic” each time.

With `COc1ccccc1CCCCN1CCC(n2c(=O)n(CCCCc3ccccc3OC)c3ccccc32)CC1`, the inhibition result in data set [10] was “Active”. Further, the result in data set [11] was inactive.

On to `COc1ccccc1CCCCn1c(=O)n(C2CCN(CCCCc3ccccc3)CC2)c2ccccc21`, for which the inhibition result in [10] was “Active”. For the same compound, the result in [11] was inactive.

Consider `O=c1n(CCCCc2ccccc2)c2ccccc2n1C1CCN(CCCC(c2ccc(F)cc2)c2ccc(F)cc2)CC1`, for which, in [10], the inhibition entry is “inactive”. Besides, in data set [11], the outcome was inactive.

As to `COc1ccc2c(c1)c(CC(=O)O)c(C)n2C(=O)c1ccc(Cl)cc1`, the result in data set [4] (filed as antagonist) was Active.

With `O=c1n(CCCCc2ccccc2)c2ccccc2n1C1CCN(CCCCc2ccccc2F)CC1`, the inhibition result in data set [10] is “Active”. Moreover, the result in data set [11] was inactive.

Turning to `O=c1n(CCCCc2cccc(F)c2)c2ccccc2n1C1CCN(CCCCc2cccc(F)c2)CC1`, in data set [10], the inhibition entry was “Active”. For the same compound, the outcome in data set [11] and in [4] was inactive. The figures for the IC50 in data set [12], in data set [13] and in data set [1] were 93 nM, 1110 nM and 217 nM, respectively. Further, the half-life in [2] was 2.42 h. For the same compound, the Activity entry in [7], in data set [14] and in [15] was “Non-Toxic” throughout.

In the case of `O=c1n(CCCCc2ccccc2Cl)c2ccccc2n1C1CCN(CCCCc2ccccc2)CC1`, the inhibition result in [10] is “Active”. Also, the result in [11] was inactive.

With `O=C(CCCc1ccccc1)N1CCC(n2c(=O)n(CCCCc3ccccc3)c3ccccc32)CC1`, the inhibition result in [10] was “Active”. Also, the outcome in data set [11] and in data set [16] was inactive. The half-maximal inhibitory concentration (IC50) in [1] was 240 nM. For the same compound, the Activity result in [7], in data set [14] and in [15] was “Non-Toxic” each time.

Turning to `O=c1n(CCCCc2ccccc2)c2ccccc2n1C1CCN(CCCOc2ccccc2)CC1`, in data set [10], the inhibition result was “Active”. Also, the outcome in data set [11] and in data set [16] was inactive.

As for `COC(=O)[C@@H](N)CCCNC(=N)N[N+](=O)[O-]`, the result in data set [17] was Active.

On to `O=c1n(CCCCc2ccccc2)c2ccccc2n1C1CCN(CCCCc2cccc(F)c2)CC1`, for which the inhibition result in data set [10] is “Active”. Further, in data set [11], the result was inactive. Moreover, the figures for the IC50 in [12] and in [1] were 151 nM and 211 nM, respectively.

On to `O=c1n(CCCCc2ccccc2)c2ccccc2n1C1CCN(CCCCc2ccccc2)CC1`, for which the inhibition result in data set [10] was “Active”. For the same compound, the outcome in data set [11] and in [16] was inactive. Also, the half-inhibitory concentration (IC50) in [1] is 209 nM. Further, the Activity result in [7], in [14] and in [15] was “Non-Toxic” throughout.

On to `COc1ccccc1CCCCN1CCC(n2c(=O)n(CCCCc3ccccc3)c3ccccc32)CC1`, for which the inhibition result in data set [10] is “Active”. Moreover, the result in data set [11] and in [16] was inactive.

By IC50 is commonly meant the point on the concentration scale where inhibition reaches its midpoint. The term half-life denotes how long it takes for the measured level to halve. A higher half-life goes with slow decline.
